Values of other authors in patent publication US20150104511A1, “Pharmaceutical Antiretroviral Combinations Comprising Lamivudine, Festinavir and Nevirapine” (Cipla Limited, priority 2012, published 2015).

Key:
[1] = molecular target: RT (Reverse Transcriptase) (Human immunodeficiency virus type 1 group M subtype B, UniProt P04585); settings: compared to d4T-triphosphate
mtDNA pol γ = molecular target: T1, mtDNA pol γ (Homo sapiens, UniProt P54098); settings: compared to d4T-triphosphate
T1 sequence (P54098 1-1239): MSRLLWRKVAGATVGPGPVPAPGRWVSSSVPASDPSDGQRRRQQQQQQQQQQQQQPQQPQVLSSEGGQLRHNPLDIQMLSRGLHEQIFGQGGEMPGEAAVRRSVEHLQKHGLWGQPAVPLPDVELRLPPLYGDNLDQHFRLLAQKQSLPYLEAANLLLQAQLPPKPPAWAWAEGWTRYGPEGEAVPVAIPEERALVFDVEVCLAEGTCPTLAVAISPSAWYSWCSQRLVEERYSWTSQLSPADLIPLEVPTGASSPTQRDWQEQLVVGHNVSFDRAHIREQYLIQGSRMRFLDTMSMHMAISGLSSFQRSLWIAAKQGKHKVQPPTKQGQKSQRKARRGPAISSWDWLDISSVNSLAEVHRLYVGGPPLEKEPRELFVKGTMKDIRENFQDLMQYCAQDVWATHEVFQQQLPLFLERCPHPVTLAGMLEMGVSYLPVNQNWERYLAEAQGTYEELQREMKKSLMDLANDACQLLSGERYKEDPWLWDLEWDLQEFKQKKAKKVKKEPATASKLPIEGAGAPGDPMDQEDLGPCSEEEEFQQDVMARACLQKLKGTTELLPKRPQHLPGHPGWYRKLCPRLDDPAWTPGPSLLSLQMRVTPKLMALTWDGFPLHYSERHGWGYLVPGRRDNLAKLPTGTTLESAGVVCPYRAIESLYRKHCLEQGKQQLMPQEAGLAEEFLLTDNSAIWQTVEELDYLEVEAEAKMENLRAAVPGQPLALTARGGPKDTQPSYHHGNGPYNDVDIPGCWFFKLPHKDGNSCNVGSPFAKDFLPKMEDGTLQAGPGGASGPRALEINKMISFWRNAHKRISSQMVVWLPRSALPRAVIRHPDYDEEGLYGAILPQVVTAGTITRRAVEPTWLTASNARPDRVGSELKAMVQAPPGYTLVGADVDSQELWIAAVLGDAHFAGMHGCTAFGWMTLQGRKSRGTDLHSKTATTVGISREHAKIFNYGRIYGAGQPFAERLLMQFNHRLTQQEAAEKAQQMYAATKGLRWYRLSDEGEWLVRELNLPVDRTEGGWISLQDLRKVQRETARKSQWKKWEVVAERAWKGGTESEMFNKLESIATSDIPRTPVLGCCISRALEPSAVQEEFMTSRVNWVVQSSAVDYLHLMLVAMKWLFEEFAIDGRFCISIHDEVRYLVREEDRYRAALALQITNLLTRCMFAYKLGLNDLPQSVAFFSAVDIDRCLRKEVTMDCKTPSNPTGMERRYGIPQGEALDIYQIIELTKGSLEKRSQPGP

For C#C[C@@]1(COP(=O)(O)OP(=O)(O)OP(=O)(O)O)C=C[C@H](n2cc(C)c(=O)[nH]c2=O)O1 [4′-Ed4T triphosphate], the “increase in affinity to RT (Reverse Transcriptase)” value [1] is listed as “approximately 5 fold” and the “interactions with mtDNA pol γ” value (mtDNA pol γ) is listed as “reduces the interactions with mtDNA pol γ”.
For C#C[C@@]1(CO)C=C[C@H](n2cc(C)c(=O)[nH]c2=O)O1 [Festinavir, 2′,3′-didehydro-3′-deoxy-4′-ethynylthymidine], the “persistence of anti-HIV activity after drug removal” value (HIV; compared with the other thymidine analogs) is listed as “more persistent anti-HIV activity after drug removal”, the “improved potency as compared to stavudine (d4T)” value (HIV; relative to stavudine (d4T)) is listed as 5-10 fold and the “in vitro toxicity, including effects on mtDNA” value (mtDNA; as compared to stavudine (d4T)) is listed as “reduced in vitro toxicity”. The “cellular and mitochondrial toxicity” value (mtDNA; compared with stavudine (d4T)) was “lower cellular and mitochondrial toxicity”.
